This note sets out measurements from article PMC3618660 (Journal of medicinal chemistry, 2013).

The test system of experiment [1] is C57BL/6 mice. As to the kind of experiment: mouse warm water tail withdrawal. The format is in vivo.
Experiment [2] deals with mu opioid receptor (MOR) (Rattus norvegicus, UniProt P33535). As to the kind of experiment: [3H]diprenorphine competitive displacement binding, C6-MOR membranes.
In experiment [3] the target is delta opioid receptor (DOR) (Rattus norvegicus, UniProt P33533). Put plainly: antagonism of DPDPE-stimulated GTPγS binding at DOR. The format is biochemical. For orientation: GTPγS resists hydrolysis and so accumulates on activated G proteins.
Chain of delta opioid receptor (DOR) (P33533 whole entry): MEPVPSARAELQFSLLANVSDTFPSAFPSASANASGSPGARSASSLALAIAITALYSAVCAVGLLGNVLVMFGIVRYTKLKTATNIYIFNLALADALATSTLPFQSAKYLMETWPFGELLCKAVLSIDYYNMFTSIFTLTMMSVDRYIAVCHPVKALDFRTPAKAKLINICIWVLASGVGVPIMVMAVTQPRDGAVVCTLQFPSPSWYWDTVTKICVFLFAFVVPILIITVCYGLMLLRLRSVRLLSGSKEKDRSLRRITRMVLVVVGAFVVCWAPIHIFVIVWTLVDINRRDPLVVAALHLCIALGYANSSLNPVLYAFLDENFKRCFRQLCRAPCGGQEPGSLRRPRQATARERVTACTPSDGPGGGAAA

Chain of mu opioid receptor (MOR) (P33535 whole entry): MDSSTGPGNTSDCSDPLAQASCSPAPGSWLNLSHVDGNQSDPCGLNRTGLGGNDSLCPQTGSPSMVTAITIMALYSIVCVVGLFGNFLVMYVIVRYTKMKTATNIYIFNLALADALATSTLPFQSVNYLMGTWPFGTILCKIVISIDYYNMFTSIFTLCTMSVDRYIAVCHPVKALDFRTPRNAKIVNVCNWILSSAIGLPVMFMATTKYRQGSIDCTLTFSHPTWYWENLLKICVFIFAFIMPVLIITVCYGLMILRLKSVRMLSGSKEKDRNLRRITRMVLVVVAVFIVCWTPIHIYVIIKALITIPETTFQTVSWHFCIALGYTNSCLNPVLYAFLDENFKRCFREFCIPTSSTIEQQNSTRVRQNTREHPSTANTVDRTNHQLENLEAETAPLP

A word on the ED50: it is the dose that gives a 50% effect, or the effect in half of the subjects. As to `Cc1cc(O)cc(C)c1C[C@H](N)C(=O)N[C@@H]1CCNc2ccc(Cc3ccccc3)cc21` [1 (4R)], the ED50 in experiment [1] (Mus musculus, ip, read-out: ED50, tail withdrawal latency) is approximately 6 µmol/kg. Also, the “antinociceptive potency compared with morphine” value in experiment [1] (mouse WWTW after intraperitoneal administration) is “approximately equipotent to morphine”. Besides, the “time maximal antinociception is maintained” value in experiment [1] (mouse WWTW time course, 10 mg/kg ip) is “approximately 60 minutes”. Also, the “effect of naltrexone pretreatment on dose/response curve” value in experiment [1] (naltrexone 1mg/kg ip, 30 min pretreatment, mouse WWTW) was “rightward shift”.
The Ki is a measure of affinity in units of concentration, obtained from inhibition or displacement. A higher Ki goes with weaker binding. With `Cc1cc(O)cc(C)c1C[C@H](N)C(=O)N[C@@H]1CCNc2ccc(Cc3cccc4ccccc34)cc21` [Compound 15b, (2S)-2-Amino-3-(4-hydroxy-2,6-dimethylphenyl)-N-(6-(naphthalen-1-ylmethyl)-1,2,3,4-tetrahydroquinolin-4-yl)propanamide], in experiment [2], the affinity, expressed as Ki, was 0.00076 ± 0.00014 µM.
As usually defined, the Kb is the affinity of an antagonist, worked out from how it opposes an agonist. A higher Kb goes with a less potent antagonist. In experiment [3], `Cc1cc(O)cc(C)c1C[C@H](N)C(=O)NC1CCNc2ccc(Cc3ccc4ccccc4c3)cc21` (stereo partly drawn) [Compound 15c, (2S)-2-Amino-3-(4-hydroxy-2,6-dimethylphenyl)-N-(6-(naphthalen-2-ylmethyl)-1,2,3,4-tetrahydroquinolin-4-yl)propanamide] showed a Kb of 0.0343 µM.
